# Assay results taken from patent EP3008041B1, “3-CARBAMOYL-1-METHYL[…], PROCESS FOR ITS PREPARATION AND ITS USE” (Uniwersytet Jagiellonski, priority 2013, dated 2014).
# Where two headings read alike, the source gives them in different places.
# Experiments:
# [1] = pharmacokinetics of MNA in rat plasma after single intravenous administration; assay type: in vivo, rats; settings: 100 mg/kg
# Description: (§1) A method using high performance liquid chromatography combined with tandem mass spectrometry (LC/ESI-MS/MS) was developed and validated to determine concentrations of 1-methylnicotinamide (MNA) in rat plasma. […] The pharmacokinetic parameters were determined by a non-compartmental model using Phoenix WinNonlin software (Pharsight, Sannyvale, CA, USA).
# [2] = pharmacokinetics of MNA in rat plasma after single intragastric administration; assay type: in vivo, rats; settings: 100 mg/kg; for AUC0→∞ / F / t0.5 / Cmax / MRT / tmax: MNA in rat plasma, single intragastric administration
# Description: as §1
# normotensive rats = settings: 30 mg/kg i.v., single dose 10 min before induction of thrombosis
# Description: The normotensive and hypertensive rats were then anesthetised with pentorbital (40 mg/kg, i.p.). After removing the skin in the neck region, an approximately 0.5 cm long section of the left common carotid artery was isolated. To avoid haemorrhaging, the isolation was performed by tearing the surrounding tissues of the artery without the use of sharp instruments. The method of arterial thrombosis (according to Schumacher et al., 1996) with own modification (Kramkowski et al., 2012) involves damage to the endothelium isolated from a section of the artery by electric current (1 mA, 5-15 V, 10 min.). The anode is a stainless steel wire with a bent hook-shaped tip placed in a holder to remain stable during the experiment. Its tip was placed under the artery. A piece of parafilm was placed under the artery to keep it isolated. The cathode was a needle inserted subcutaneously in the hind limb region. Once the stimulation is completed, the formation of thrombus lasts 45 minutes. After this time, the artery was ligated at both sides of the thrombus, and the damaged fragment containing the thrombus was excised. The thrombus was quantitatively extracted from the artery and transferred to a previously tared microscope cover slip. The thrombi were allowed to dry (at room temperature and average humidity) and weighed not earlier than after 24 hours.
# [3] = system: plasma coagulation system
# Description: Coagulation parameters: prothrombin time (PT), activated partial thromboplastin time (aPTT), fibrinogen concentration by Caluss and the prothrombin time percentage ratio (Quick index) were assessed in frozen plasma (-80°C) using a Caog-Chrom 3003 Bio-ksel Grudzi ? dz device.
# [4] = colour change from pale yellow to brown
# [5] = hypertensive (2K1C) rats
# platelets = settings: hypertensive rats after arterial thrombosis, 3 days per os twice a day (FIG. 2)
# Description: The blood was diluted with 0.9% NaCl at a ratio of 1:1 and stirred in an aggregation cuvette at 1200 rpm. Samples of the stirred blood were collected after 20, 40 and 60 min and at "0" time and mixed with a cold solution of ASA (final concentration: 500 µM) at a ratio of 1:1. In these samples, TxB2 was determined using the ELISA assay, according to the manual provided by the manufacturer of the reagent kit.
# fibrin = settings: hypertensive (2K1C) rats, 30 mg/kg i.v.
# [6] = TG technique under a nitrogen atmosphere
# Description: Thermal stability was determined using the TG technique under a nitrogen atmosphere (with the use of the Mettler Toledo Star TGA/DSC 1 device).
# [7] = remark: listed apart in the source
# Description: The complete blood count was assessed approximately 2 minutes after collection in fresh citrated blood using an automatic Horiba ABC Vet device. The following parameters were assessed: white blood cell count (WBC), red blood cell count (RBC), haemoglobin (HGB), haematocrit (HCT), mean corpuscular volume (MCV), mean corpuscular haemoglobin (MCH), mean corpuscular haemoglobin concentration (MCHC) and platelet count (PLT).
# [8] = hypertensive (2K1C) rats, 30 mg/kg i.v.
# [9] = hypertensive (2K1C) rats, 30 mg/kg p.o.
# [10] = normotensive rats, 10 mg/kg i.v.
# [11] = normotensive rats, 30 mg/kg i.v.
# [12] = normotensive rats, 100 mg/kg i.v.
smiles,measurement,setting,value
"C[n+]1cccc(C(N)=O)c1.[Cl-] [MNACl, 3-carbamoyl-1-methylpyridinium chloride, reference compound]",AUC0→∞,[1],"4,362,231 ± 999,203 µg·min/L"
same,Co,[1],"141,311 ± 56,500 µg/L"
same,clearance,[1],24 ± 5 mL/min/kg
same,t0.5,[1],162.5 ± 76.2 min
same,Vd,[1]; read-out: Vss,1.06 ± 0.35 L/kg
same,MRT,"[1]; rat, plasma, iv",~43 min
same,AUC0→∞,[2],"407,132 ± 164,906 µg·min/L"
same,F,[2],9.33%
same,t0.5,[2],247.4 ± 201 min
same,Cmax,"[2]; po, read-out: Cmax",2810 ng/mL
same,MRT,"[2]; po, read-out: MRT (converted)",359 min
same,tmax,"[2]; po, read-out: tmax (converted)",57.5 min
"C[n+]1cccc(C(N)=O)c1.O=N[O-] [MNANO2, 3-carbamoyl-1-methylpyridinium nitrite]",Thrombus weight,normotensive rats,0.78 ± 0.05 mg
same,APTT,[3]; [8],18.46 ± 0.81 s
same,Fglevel,[3]; [8],2.36 ± 0.13 ng/mL
same,PT,[3]; [8],17.40 ± 0.69 s
same,QUICK,[3]; [8],63.50±5.04
same,APTT,[3]; [9],17.79 ± 0.62 s
same,Fglevel,[3]; [9],2.61 ± 0.10 ng/mL
same,PT,[3]; [9],18.16 ± 0.47 s
same,QUICK,[3]; [9],62.00±4.01
same,APTT,[3]; [10],2.00 ± 2.68 s
same,Fglevel,[3]; [10],2.04 ± 0.09 ng/mL
same,PT,[3]; [10],18.23 ± 0.68 s
same,QUICK,[3]; [10],61.75±5.42
same,APTT,[3]; [11],25.67 ± 6.07 s
same,Fglevel,[3]; [11],2.15 ± 0.28 ng/mL
same,PT,[3]; [11],18.10 ± 0.81 s
same,QUICK,[3]; [11],63.00±7.57
same,APTT,[3]; [12],26.27 ± 2.89 s
same,Fglevel,[3]; [12],1.96 ± 0.11 ng/mL
same,PT,[3]; [12],19.17 ± 0.27 s
same,QUICK,[3]; [12],53.33±1.67
same,stability of aqueous solutions,[4],not stable over time
same,solubility,DMSO,soluble
same,solubility,diethyl ether,not soluble
same,solubility,ethanol,soluble
same,solubility,hexane,not soluble
same,solubility,methanol,soluble
same,solubility,water,soluble
same,Concentration of MNA in plasma after collecting thrombus,[5]; 30 mg/kg i.v.,8.72 ± 4.90 µM
same,Concentration of MNA in plasma after collecting thrombus,[5]; 30 mg/kg p.o.,5.76 ± 3.78 µM
same,AUC0→∞,[1],"6,948,716 ± 1,810,664 µg·min/L"
same,Cl,[1],15 ± 3 mL/min/kg
same,Co,[1],"138,078 ± 33,208 µg/L"
same,Vss,[1],0.63 ± 0.1 L/kg
same,t0.5,[1],61.7 ± 19.6 min
same,thromboxane B2 (TxB2) production by platelets ex vivo,platelets,inhibition of thromboxane B2 (TxB2) production
same,Generation of fibrin (AUC),fibrin,186.00±10.23
same,Tonset,[6],195 °C
same,Tonset5%,[6],170 °C
same,AUC0→∞,[2],"638,056 ± 167,631 µg·min/L"
same,Cmax,[2],"8,881 ± 5,506 µg/L"
same,F,[2],9.18%
same,MRT,[2],232 ± 38.3 min
same,t0.5,[2],178.4 ± 12.2 min
same,tmax,[2],15 ± 10 min
same,concentration in rat plasma compared to MNACl administration,[2]; intragastric administration,three times higher
same,time of occurrence of the maximum concentration compared to MNACl administration,[2]; intragastric administration,four times shorter
same,HCT,[7]; [8],38.35±0.49%
same,HGB,[7]; [8],12.27 ± 0.16 g/dL
same,MCH,[7]; [8],17.51±0.26 pg per cell
same,MCHC,[7]; [8],31.65 ± 0.21 g/dL
same,MCV,[7]; [8],54.86 ± 0.60 fL
same,PLT,[7]; [8],621±18 103/µL
same,RBC,[7]; [8],7.36±0.19 106/µL
same,WBC,[7]; [8],2.87±0.35 106/µL
same,HCT,[7]; [9],40.07±0.03%
same,HGB,[7]; [9],13.23 ± 0.24 g/dL
same,MCH,[7]; [9],18.77±0.71 pg per cell
same,MCHC,[7]; [9],32.97 ± 0.58 g/dL
same,MCV,[7]; [9],57.00 ± 1.53 fL
same,PLT,[7]; [9],630±12 103/µL
same,RBC,[7]; [9],7.05±0.18 106/µL
same,WBC,[7]; [9],2.93±0.26 106/µL
same,HCT,[7]; [10],30.03±1.26%
same,HGB,[7]; [10],12.15 ± 0.26 g/dL
same,MCH,[7]; [10],25.05±0.53 pg per cell
same,MCHC,[7]; [10],40.93 ± 1.00 g/dL
same,MCV,[7]; [10],61.25 ± 0.25 fL
same,PLT,[7]; [10],493±17 10^3/µl
same,RBC,[7]; [10],4.90±0.18 106/µl
same,WBC,[7]; [10],1.95±0.35 106/µl
same,HCT,[7]; [11],29.07±1.61%
same,HGB,[7]; [11],12.30 ± 0.26 g/dL
same,MCH,[7]; [11],25.73±0.92 pg per cell
same,MCHC,[7]; [11],42.40 ± 1.32 g/dL
same,MCV,[7]; [11],60.68 ± 0.33 fL
same,PLT,[7]; [11],489±23 10^3/µl
same,RBC,[7]; [11],4.80±0.29 106/µl
same,WBC,[7]; [11],1.77±0.43 106/µl
same,HCT,[7]; [12],33.33±1.31%
same,HGB,[7]; [12],12.67 ± 0.47 g/dL
same,MCH,[7]; [12],25.53±0.48 pg per cell
same,MCHC,[7]; [12],37.97 ± 0.18 g/dL
same,MCV,[7]; [12],62.00 ± 1.16 fL
same,PLT,[7]; [12],566±56 10^3/µl
same,RBC,[7]; [12],5.38±0.21 106/µl
same,WBC,[7]; [12],1.12±0.19 106/µl
